From patent US12178840B2, “Method and compositions comprising a CT20 peptide” (UNIVERSITY OF CENTRAL FLORIDA RESEARCH FOUNDATION, INC., priority 2014, dated 2024)
Residues, ends and D or L forms follow the SMILES beside them.

Experiments:
CCTβ = target: T1, CCTβ (Homo sapiens, UniProt P78371); experiment: Lysate pull-down with CT20p-biotin, immunoblot for CCTβ; type: binding; details: TNBC cell lines and MCF-10A lysates; more so in the MSL subtypes
T1 construct: probing lysates from the TNBC cell lines and MCF-10A cells with CT20p-biotin; endogenous in cells; host or cells: lysates of MDA-MB-231, MDA-MB-436, MDA-MB-468, BT-549 and MCF-10A cells
Method: Immunoblotting: Cell lysates were obtained by mechanical douncing in fractionation buffer consisting of 210 mM sucrose, 70 mM mannitol, 10 mM HEPES, 1 mM EDTA, pH 7.4. Lysates were centrifuged at 1,000×g for 10 minutes at 4° C., and the supernatants were subjected to SDS-PAGE, followed by transfer to Immobilon-FL membranes (Millipore). Blots were probed with primary antibodies against CCTβ (Millipore), […]. (Abcam), CCTε (Abcam), or p38 (Santa Cruz). Detection was performed by incubation with IRDye 800CW or IRDye 680CW secondary antibodies (LI-COR), followed by imaging on the Oddysey detection system (LI-COR). Quantificition of Western blots was performed with Image Studio software (LI-COR). Proteins of interest were quantified relative to p38 loading controls, then normalized to the level in MCF-10A cells.
(§1) Pull down experiments: Lysate pull-downs were performed with 200 ug cell lysate, obtained by douncing as described above. Lysates were pre-cleared with streptavidin-agarose beads (Pierce), then incubated with […] of CT20-Biotin or biotin for 3 hours at room temperature, followed by overnight incubation at 4° C. with streptavidin-agarose beads. Beads were washed thoroughly with wash buffer (25 mM Tris, 150 mM NaCl, 0.1% NP40, pH7.4), then heated in 4× loading buffer (Invitrogen) for analysis by SDS-PAGE. Mass spectrometric analysis was performed by Moffit Cancer Center (Tampa, FL). […]

CCTβ in MCF-10A cells = target: T2, CCTβ in MCF-10A cells (Homo sapiens, UniProt P78371); experiment: In-cell pull down (CT20p-biotin in HBPE-nanoparticles), blot for CCTβ; type: cell-based; details: whole cell lysates
T2 construct: delivered to viable MDA-MB-231 and MCF-10A cells, followed by gentle cell lysis; endogenous in cells; host or cells: MCF-10A (untransfected)
Method: as §1, with “FL). Mass spectrometry results presented are of proteins with at least two unique peptides identified, and that were not recovered with biotin-only pull down. In-cell pull downs were performed by first delivering CT20p-Biotin encapsulated in nanoparticles to viable cells at a dose of 75 μg/mL for varying lengths of time. Following treatment, cells were collected and lysed by douncing. 200 ug of cell lysate were then incubated with streptavidin-agarose beads overnight at 4° C., and pull-down was completed as described above.” for “FL).”
(§2) Because pull downs performed in cell lysates may emphasize non-specific protein interactions, we designed an in-cell pull down assay to better reflect interactions in the intracellular environment. […] Indeed, no pull down was detected with DiI-loaded nanoparticles.

CCTβ in MDA-MB-231 cells = target: T3, CCTβ in MDA-MB-231 cells (Homo sapiens, UniProt P78371); experiment: as above; type: cell-based; details: whole cell lysates
T3 construct: delivered to viable MDA-MB-231 and MCF-10A cells, followed by gentle cell lysis; endogenous in cells; host or cells: MDA-MB-231
Method: as §1, with “FL). Mass spectrometry results presented are of proteins with at least two unique peptides identified, and that were not recovered with biotin-only pull down. In-cell pull downs were performed by first delivering CT20p-Biotin encapsulated in nanoparticles to viable cells at a dose of 75 μg/mL for varying lengths of time. Following treatment, cells were collected and lysed by douncing. 200 ug of cell lysate were then incubated with streptavidin-agarose beads overnight at 4° C., and pull-down was completed as described above.” for “FL).”
as §2

MDA-MB-231 cells = experiment: Migration assay (Oris exclusion zone); type: cell-based, human; details: 24 hours treatment, 10 hours migration
Method: Migration assay: The Oris cell migration assembly kit (Platypus Technologies) was used. Cells were stained with CellTrace Violet (Life Technologies) according to manufacturer's protocol. Stoppers were placed in wells of a 96-well plate before cells were seeded at a density of 30,000 cells per well. For experiments involving CT20p treatment, treatments with CT20p were began 18 hours following seeding and allowed to continue for 24 hours. Treatments were done in quadruplicate. At the end of the treatment period, stoppers were removed to create an exclusion zone that the cells would migrate into. MDA-MB-231 cells were allowed to migrate for 10 hours. MCF-10A and MCF-10A EMT cells were allowed to migrate for 20 hours. Following the migration period, fluorescent images were obtained using a Plate Runner HD (Trophos). […] Images were analyzed by ImageJ software (NIH) by using the wand tool to automatically define and measure the migration zone. % closure was calculated as [(pre migration area−migration area)/pre migration area]×100.
Observations on the effects of CT20p on breast cancer cells include loss of actin distribution throughout the cell, especially in the filapodia (FIG. 3C). […] Immediately following removal of the stoppers, the pre-migration area can be determined. […] After quantification of the areas as described in Materials & Methods, % closure was calculated for each condition (FIG. 11B). […]

[1] = test system: cells isolated from primary breast tumors; experiment: Lethality in cells isolated from primary breast tumors; type: cell-based, human; details: CT20 peptide in HBPE-NPs
Excerpt: 40× magnification. CCTβ was detected in invasive breast cancer.
The lethality of CT20 was also examined in cells isolated from primary breast tumors and paired normal tissue. […] To this end, the levels of CCTβ were examined in a pilot tissue array of breast cancer tissue cores by immunohistochemistry (IHC) and detected CCTβ in invasive breast cancer (FIG. 14B).

In the case of `CC[C@H](C)[C@H](NC(=O)[C@@H](NC(=O)[C@H](CC(C)C)NC(=O)[C@H](CO)NC(=O)[C@H](C)NC(=O)[C@@H](NC(=O)[C@H](CC(C)C)NC(=O)[C@@H](NC(=O)CNC(=O)[C@H](C)NC(=O)[C@@H](NC(=O)[C@H](Cc1ccccc1)NC(=O)[C@@H](NC(=O)[C@@H](NC(=O)[C@@H](NC(C)=O)C(C)C)[C@@H](C)O)[C@@H](C)CC)C(C)C)C(C)C)[C@@H](C)O)[C@@H](C)O)C(=O)N[C@@H](Cc1c[nH]c2ccccc12)C(=O)N[C@@H](CCCCN)C(=O)N[C@@H](CCCCN)C(=O)N[C@@H](CCSC)C(=O)NCC(N)=O` [CT20] (Ac-VTIFVAGVLTASLTIWKKMG-NH2), the “Interaction with CCTβ in cell lysates” value (CCTβ) is reported as “able to interact with CCTβ in all cell lines”, the “Effect on total CCTβ protein levels” value (CCTβ in MCF-10A cells) is reported as “does not affect” and the “Effect on total CCTβ protein levels” value (CCTβ in MDA-MB-231 cells) is reported as “does not affect”. The “Effect on migration (% closure of exclusion zone)” value (MDA-MB-231 cells; 75 μg/mL) was “significantly impaired movement”, the “Effect on migration (% closure of exclusion zone)” value (MDA-MB-231 cells; 150 μg/mL) was “nearly eliminated” and the Lethality [1] was “killed the tumor cells”.
